Drawing on ChEMBL document CHEMBL1201862, “PubChem BioAssay data set” (2004), this text covers IC50, EC50 and AC50 for six compounds.

Assay [1] addresses T1, Sentrin-specific protease 8 (Homo sapiens, UniProt Q96LD8).
T1 sequence (Q96LD8 whole entry): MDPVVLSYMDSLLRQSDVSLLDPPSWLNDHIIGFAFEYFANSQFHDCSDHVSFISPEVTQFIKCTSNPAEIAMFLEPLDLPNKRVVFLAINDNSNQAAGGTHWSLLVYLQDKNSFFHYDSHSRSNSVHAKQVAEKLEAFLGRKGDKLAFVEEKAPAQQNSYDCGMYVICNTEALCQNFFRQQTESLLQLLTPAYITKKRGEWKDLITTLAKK
It counts as functional.

The next assay concerns the target T2, Protein RecA (Mycobacterium tuberculosis, UniProt P9WHJ3).
T2 sequence (P9WHJ3 whole entry): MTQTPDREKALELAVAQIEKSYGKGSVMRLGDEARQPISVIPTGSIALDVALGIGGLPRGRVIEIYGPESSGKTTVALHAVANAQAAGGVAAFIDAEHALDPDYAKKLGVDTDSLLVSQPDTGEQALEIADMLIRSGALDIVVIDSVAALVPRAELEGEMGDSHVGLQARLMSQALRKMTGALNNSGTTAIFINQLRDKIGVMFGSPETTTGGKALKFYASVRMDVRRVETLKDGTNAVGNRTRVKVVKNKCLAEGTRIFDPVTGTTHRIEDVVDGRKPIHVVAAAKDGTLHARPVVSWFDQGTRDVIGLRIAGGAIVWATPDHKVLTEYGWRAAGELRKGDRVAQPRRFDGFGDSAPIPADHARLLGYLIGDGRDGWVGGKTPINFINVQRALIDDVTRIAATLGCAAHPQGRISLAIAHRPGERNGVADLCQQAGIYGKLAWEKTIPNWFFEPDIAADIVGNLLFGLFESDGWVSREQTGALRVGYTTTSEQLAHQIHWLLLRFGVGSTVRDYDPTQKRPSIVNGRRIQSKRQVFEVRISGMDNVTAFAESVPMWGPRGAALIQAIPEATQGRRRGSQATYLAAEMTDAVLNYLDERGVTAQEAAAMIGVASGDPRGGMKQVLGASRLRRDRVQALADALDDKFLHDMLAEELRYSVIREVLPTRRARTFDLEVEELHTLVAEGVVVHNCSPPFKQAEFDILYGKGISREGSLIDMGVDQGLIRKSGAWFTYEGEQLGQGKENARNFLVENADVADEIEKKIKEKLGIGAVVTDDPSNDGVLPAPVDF
Description: Fluorescence Cell-Free Homogeneous Dose Retest to Identify Inhibitors of RecA-Intein Splicing Activity. [Related pubchem assays (depositor defined):AID2097, AID2223, AID489010, AID492950]. It counts as functional.

For assay [2], the target named is T3, Replicative DNA helicase DnaB (Mycobacterium tuberculosis, UniProt P9WMR3).
T3 sequence (P9WMR3 whole entry): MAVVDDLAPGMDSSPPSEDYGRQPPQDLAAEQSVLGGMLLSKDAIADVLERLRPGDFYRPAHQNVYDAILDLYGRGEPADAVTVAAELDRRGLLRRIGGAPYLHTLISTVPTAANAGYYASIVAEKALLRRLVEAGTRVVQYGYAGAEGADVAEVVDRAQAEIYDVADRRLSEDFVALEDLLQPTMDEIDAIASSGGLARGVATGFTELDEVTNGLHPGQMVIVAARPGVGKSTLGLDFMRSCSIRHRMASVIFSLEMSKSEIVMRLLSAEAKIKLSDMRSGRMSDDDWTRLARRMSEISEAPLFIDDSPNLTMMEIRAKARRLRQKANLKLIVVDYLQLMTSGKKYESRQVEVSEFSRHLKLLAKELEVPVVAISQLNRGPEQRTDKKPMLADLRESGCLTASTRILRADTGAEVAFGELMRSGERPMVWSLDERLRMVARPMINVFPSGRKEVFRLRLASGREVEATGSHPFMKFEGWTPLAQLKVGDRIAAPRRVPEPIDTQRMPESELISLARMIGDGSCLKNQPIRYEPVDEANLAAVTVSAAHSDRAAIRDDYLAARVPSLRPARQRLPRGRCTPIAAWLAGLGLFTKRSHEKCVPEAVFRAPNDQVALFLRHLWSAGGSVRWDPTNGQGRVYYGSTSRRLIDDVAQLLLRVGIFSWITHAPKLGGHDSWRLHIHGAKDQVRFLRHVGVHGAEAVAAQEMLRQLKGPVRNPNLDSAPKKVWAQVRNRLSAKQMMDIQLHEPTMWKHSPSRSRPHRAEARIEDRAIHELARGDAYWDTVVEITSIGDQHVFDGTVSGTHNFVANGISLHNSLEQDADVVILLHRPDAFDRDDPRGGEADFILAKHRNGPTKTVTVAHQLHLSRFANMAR
As to the kind of experiment: DnaB intein splicing inhibitors, dose response, biochemical, cell-free fluorescence (AID 449749). It counts as functional.

A further assay relates to INS1. Description: beta cell apoptosis inhibitors, cytokine rescue, dose response, luminescence, retest (AID 449756).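 Note: cell death triggered by IL-1 beta plus TNF-alpha plus IFN-gamma mixture; protective hits raise ATP signal compared with cytokine alone wells.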 It counts as functional, cell-based. The note with it: Rattus norvegicus.

Molecules are shown by their SMILES. Active and inactive are the calls of the source. Some results are limits rather than exact numbers.
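Throughout, for IC50: luminescence read-out of SENP8 inhibition, dose-response confirmation following an ultra-high-throughput screen.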

With `COc1ccc(-c2cc(-c3ccc(C)cc3)[nH]n2)c(O)c1`, the IC50 in assay [1] is 34600 nM (active).
Consider `Cc1ccccc1NC1=C/C(=N\S(=O)(=O)c2ccc(C(=O)O)cc2)c2ccccc2C1=O`, for which, at Protein RecA, the EC50 was 3670 nM (active). The AC50 is 105000 nM (active) in assay [2] and 4380 nM (active) with INS1.
On the same counts, the results for `COC(=O)C[C@]1(C(=O)OC)CN(C#N)N(c2ccc(Cl)cc2)C12c1ccccc1-c1ccccc12` are 1770 nM (active), 1830 nM (active) and 2770 nM (active).
Turning to `CCCCn1c(NC(=O)c2ccco2)c(C(=O)OCC)c2nc3ccccc3nc21`, in assay [1], the IC50 is 4360 nM (active).
Same read-out and setting: the same measure for `O=C(Nc1ccc(C#Cc2ccccc2)cc1)C1CC1`: > 100000 nM (inactive).
On to `Cc1ccc(NC2=C/C(=N/S(=O)(=O)c3cccs3)c3ccccc3C2=O)cc1`, for which the IC50 in assay [1] was 244 nM (active). Besides, the EC50 at Protein RecA is 119 nM (active). Moreover, the figures for the half-maximal activity concentration (AC50) (in assay [2]; in the assay with INS1) were 301 nM (active) and 720 nM (active), respectively.
